In PubChem BioAssay (NCI):
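Each compound was tested at five concentrations against cells in 96-well plates for 48 hours. Abbreviation: GI50, concentration required for 50% inhibition of growth. At the TGI there is no net growth.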

What was measured:
Assay in all cases: DTP human tumour cell line panel, 48 h
UACC-257 melanoma = tested on: UACC-257 melanoma
SNB-75 CNS = tested on: SNB-75 CNS
IGROV1 ovarian = tested on: IGROV1 ovarian
LOX IMVI melanoma = tested on: LOX IMVI melanoma
HCC-2998 colon = tested on: HCC-2998 colon
SK-MEL-5 melanoma = tested on: SK-MEL-5 melanoma
TK-10 renal = tested on: TK-10 renal
SN12C renal = tested on: SN12C renal
UO-31 renal = tested on: UO-31 renal
MDA-MB-231 breast = tested on: MDA-MB-231 breast

CCOP(=O)(OCC)C1CCCCOC1=O (centres undefined)
TGI (UACC-257 melanoma): > 100 µM | TGI (SNB-75 CNS): > 100 µM | TGI (IGROV1 ovarian): > 100 µM | TGI (LOX IMVI melanoma): 40 µM | TGI (HCC-2998 colon): > 100 µM | TGI (SK-MEL-5 melanoma): > 100 µM | TGI (TK-10 renal): > 100 µM | TGI (SN12C renal): > 100 µM | TGI (UO-31 renal): > 100 µM

COc1cccc(OC(=O)c2ccccc2Nc2ccnc(C(F)(F)F)c2)c1
GI50 (UACC-257 melanoma): 5.37 µM | TGI (UACC-257 melanoma): 32.4 µM | GI50 (MDA-MB-231 breast): 2.12 µM | TGI (MDA-MB-231 breast): 16.9 µM | GI50 (IGROV1 ovarian): 23.6 µM | TGI (IGROV1 ovarian): > 100 µM | GI50 (LOX IMVI melanoma): 1.07 µM | TGI (LOX IMVI melanoma): 10.4 µM | GI50 (SK-MEL-5 melanoma): 2.23 µM | GI50 (TK-10 renal): 11.2 µM | TGI (TK-10 renal): 37 µM | GI50 (SN12C renal): 5.33 µM | TGI (SN12C renal): 41.2 µM | GI50 (UO-31 renal): 61.2 µM | TGI (UO-31 renal): > 100 µM

CN1CCc2c1nc(-c1ccccc1)c1c2N(C)CC1
TGI (UACC-257 melanoma): > 100 µM | TGI (SNB-75 CNS): > 100 µM | TGI (IGROV1 ovarian): > 100 µM | TGI (LOX IMVI melanoma): > 100 µM | TGI (HCC-2998 colon): > 100 µM | TGI (SK-MEL-5 melanoma): > 100 µM | TGI (TK-10 renal): > 100 µM | TGI (SN12C renal): > 100 µM | TGI (UO-31 renal): 78.5 µM

CN(C)c1ccc2nc3ccc(=[N+](C)C)cc-3oc2c1
GI50 (UACC-257 melanoma): 0.697 µM | TGI (UACC-257 melanoma): 3.34 µM | GI50 (SNB-75 CNS): 2.63 µM | TGI (SNB-75 CNS): 17.1 µM | GI50 (IGROV1 ovarian): 1.86 µM | TGI (IGROV1 ovarian): 5.01 µM | GI50 (LOX IMVI melanoma): 2.32 µM | TGI (LOX IMVI melanoma): 9.28 µM | GI50 (HCC-2998 colon): 3.56 µM | TGI (HCC-2998 colon): > 100 µM | GI50 (SK-MEL-5 melanoma): 0.47 µM | TGI (SK-MEL-5 melanoma): 1.65 µM | GI50 (TK-10 renal): 17.2 µM | TGI (TK-10 renal): 57.2 µM | GI50 (SN12C renal): 0.892 µM | TGI (SN12C renal): 3.5 µM | GI50 (UO-31 renal): 12.8 µM | TGI (UO-31 renal): 89.3 µM

NCC1(N2CCOCC2)C2CCCC21CO (centres undefined)
TGI (UACC-257 melanoma): > 100 µM | TGI (SNB-75 CNS): > 100 µM | TGI (IGROV1 ovarian): > 100 µM | TGI (HCC-2998 colon): > 100 µM | TGI (SK-MEL-5 melanoma): > 100 µM | TGI (SN12C renal): > 100 µM | TGI (UO-31 renal): > 100 µM

O=C(CCn1[nH]c(=O)c(Cl)c(Cl)c1=O)NOCCCc1ccccc1
TGI (UACC-257 melanoma): > 100 µM | TGI (SNB-75 CNS): > 100 µM | TGI (IGROV1 ovarian): > 100 µM | TGI (LOX IMVI melanoma): > 100 µM | TGI (HCC-2998 colon): > 100 µM | TGI (SK-MEL-5 melanoma): > 100 µM | TGI (TK-10 renal): > 100 µM | TGI (SN12C renal): > 100 µM | TGI (UO-31 renal): > 100 µM

CC(=O)[O][Pb]([O]C(C)=O)([c]1ccccc1)[c]1ccccc1
GI50 (UACC-257 melanoma): 6.88 µM | TGI (UACC-257 melanoma): > 100 µM | GI50 (SNB-75 CNS): 4.41 µM | TGI (SNB-75 CNS): > 77.7 µM | GI50 (IGROV1 ovarian): 5.98 µM | TGI (IGROV1 ovarian): > 100 µM | GI50 (LOX IMVI melanoma): 1.19 µM | TGI (LOX IMVI melanoma): 2.67 µM | GI50 (HCC-2998 colon): 44.9 µM | TGI (HCC-2998 colon): > 100 µM | GI50 (SK-MEL-5 melanoma): 2.91 µM | TGI (SK-MEL-5 melanoma): 14 µM | GI50 (TK-10 renal): > 53.1 µM | TGI (TK-10 renal): > 100 µM | GI50 (SN12C renal): 3.61 µM | TGI (SN12C renal): > 100 µM | GI50 (UO-31 renal): > 100 µM | TGI (UO-31 renal): > 100 µM

O=C1c2ccccc2C(=O)N1CC1(C(=O)O)NCCS1(=O)=O (centres undefined)
TGI (UACC-257 melanoma): > 100 µM | TGI (MDA-MB-231 breast): > 100 µM | TGI (IGROV1 ovarian): > 100 µM | TGI (LOX IMVI melanoma): > 100 µM | TGI (SK-MEL-5 melanoma): > 100 µM | TGI (TK-10 renal): > 100 µM | TGI (SN12C renal): > 100 µM | TGI (UO-31 renal): > 100 µM

COc1ccccc1[N-]C(C1=C([O-])c2ccccc2C1=O)c1ccccc1.COc1ccccc1[N-]C(C1=C([O-])c2ccccc2C1=O)c1ccccc1.[Cu+2] (centres undefined)
GI50 (UACC-257 melanoma): 12.9 µM | TGI (UACC-257 melanoma): > 100 µM | GI50 (SNB-75 CNS): 11.9 µM | TGI (SNB-75 CNS): 37.1 µM | GI50 (IGROV1 ovarian): 9.3 µM | TGI (IGROV1 ovarian): > 100 µM | GI50 (LOX IMVI melanoma): 8.64 µM | TGI (LOX IMVI melanoma): 95.2 µM | GI50 (SK-MEL-5 melanoma): 5.39 µM | TGI (SK-MEL-5 melanoma): 72.7 µM | GI50 (TK-10 renal): 31.7 µM | TGI (TK-10 renal): 68.3 µM | GI50 (SN12C renal): 9.37 µM | TGI (SN12C renal): > 100 µM | GI50 (UO-31 renal): 12 µM | TGI (UO-31 renal): 75.2 µM

CCC[CH2][Sn]([CH2]CCC)([O]C(C)=O)[O]C(C)=O
GI50 (UACC-257 melanoma): 1.39 µM | TGI (UACC-257 melanoma): 3.26 µM | GI50 (SNB-75 CNS): 1.02 µM | TGI (SNB-75 CNS): 2.63 µM | GI50 (IGROV1 ovarian): 1.32 µM | TGI (IGROV1 ovarian): 1.96 µM | GI50 (LOX IMVI melanoma): 0.916 µM | TGI (LOX IMVI melanoma): 2.4 µM | GI50 (HCC-2998 colon): 1.53 µM | TGI (HCC-2998 colon): 2.92 µM | GI50 (SK-MEL-5 melanoma): 1.04 µM | TGI (SK-MEL-5 melanoma): 2.4 µM | GI50 (TK-10 renal): 1.38 µM | TGI (TK-10 renal): 2.74 µM | GI50 (SN12C renal): 1.24 µM | TGI (SN12C renal): 2.54 µM | GI50 (UO-31 renal): 1.72 µM | TGI (UO-31 renal): 3.13 µM

Cn1c(=O)c2[nH]c(/N=N/N3CCN(CCO)CC3)nc2n(C)c1=O
TGI (UACC-257 melanoma): > 100 µM | TGI (MDA-MB-231 breast): > 100 µM | TGI (IGROV1 ovarian): > 100 µM | TGI (LOX IMVI melanoma): > 100 µM | TGI (SK-MEL-5 melanoma): > 100 µM | TGI (TK-10 renal): > 100 µM | TGI (SN12C renal): > 100 µM | TGI (UO-31 renal): > 100 µM

CC12CCC(=O)C=C1CCC1C2CCC2(C)C(C(=O)Cn3cnc4c(=S)nc[nH]c43)CCC12 (centres undefined)
TGI (UACC-257 melanoma): > 100 µM | TGI (SNB-75 CNS): 36.8 µM | TGI (MDA-MB-231 breast): > 100 µM | TGI (IGROV1 ovarian): > 100 µM | TGI (LOX IMVI melanoma): > 100 µM | TGI (SK-MEL-5 melanoma): > 100 µM | TGI (TK-10 renal): > 100 µM | TGI (SN12C renal): > 100 µM | TGI (UO-31 renal): > 100 µM

CC1=C2CCCC2C/C(=N/Nc2ccc([N+](=O)[O-])cc2[N+](=O)[O-])CC1 (centres undefined)
TGI (UACC-257 melanoma): > 100 µM | TGI (SNB-75 CNS): > 100 µM | TGI (IGROV1 ovarian): > 100 µM | TGI (LOX IMVI melanoma): > 100 µM | TGI (HCC-2998 colon): > 100 µM | TGI (SK-MEL-5 melanoma): > 100 µM | TGI (TK-10 renal): > 100 µM | TGI (SN12C renal): > 100 µM | TGI (UO-31 renal): > 100 µM

CC1CC2C(=O)NC(=O)C2c2[nH]c3ccccc3c21 (centres undefined)
TGI (SNB-75 CNS): > 100 µM | TGI (IGROV1 ovarian): > 100 µM | TGI (LOX IMVI melanoma): > 100 µM | TGI (SK-MEL-5 melanoma): > 100 µM | TGI (SN12C renal): > 100 µM | TGI (UO-31 renal): > 100 µM
